SMILES strings stand for the structures.

Experimental findings from patent US11524966B1 (Valo Early Discovery, Inc., priority 2017, dated 2022) are described below.

The target of this experiment is T1, USP28 (His-tagged USP28-FL-mammalian) (Homo sapiens, UniProt Q96RU2).
T1 construct: Expression of USP28 (1-1077)-TEV-6*His (pTT5 vector); made in house; host or cells: Expi293f cells (pTT5 vector)
T1 sequence (Q96RU2 1-1077): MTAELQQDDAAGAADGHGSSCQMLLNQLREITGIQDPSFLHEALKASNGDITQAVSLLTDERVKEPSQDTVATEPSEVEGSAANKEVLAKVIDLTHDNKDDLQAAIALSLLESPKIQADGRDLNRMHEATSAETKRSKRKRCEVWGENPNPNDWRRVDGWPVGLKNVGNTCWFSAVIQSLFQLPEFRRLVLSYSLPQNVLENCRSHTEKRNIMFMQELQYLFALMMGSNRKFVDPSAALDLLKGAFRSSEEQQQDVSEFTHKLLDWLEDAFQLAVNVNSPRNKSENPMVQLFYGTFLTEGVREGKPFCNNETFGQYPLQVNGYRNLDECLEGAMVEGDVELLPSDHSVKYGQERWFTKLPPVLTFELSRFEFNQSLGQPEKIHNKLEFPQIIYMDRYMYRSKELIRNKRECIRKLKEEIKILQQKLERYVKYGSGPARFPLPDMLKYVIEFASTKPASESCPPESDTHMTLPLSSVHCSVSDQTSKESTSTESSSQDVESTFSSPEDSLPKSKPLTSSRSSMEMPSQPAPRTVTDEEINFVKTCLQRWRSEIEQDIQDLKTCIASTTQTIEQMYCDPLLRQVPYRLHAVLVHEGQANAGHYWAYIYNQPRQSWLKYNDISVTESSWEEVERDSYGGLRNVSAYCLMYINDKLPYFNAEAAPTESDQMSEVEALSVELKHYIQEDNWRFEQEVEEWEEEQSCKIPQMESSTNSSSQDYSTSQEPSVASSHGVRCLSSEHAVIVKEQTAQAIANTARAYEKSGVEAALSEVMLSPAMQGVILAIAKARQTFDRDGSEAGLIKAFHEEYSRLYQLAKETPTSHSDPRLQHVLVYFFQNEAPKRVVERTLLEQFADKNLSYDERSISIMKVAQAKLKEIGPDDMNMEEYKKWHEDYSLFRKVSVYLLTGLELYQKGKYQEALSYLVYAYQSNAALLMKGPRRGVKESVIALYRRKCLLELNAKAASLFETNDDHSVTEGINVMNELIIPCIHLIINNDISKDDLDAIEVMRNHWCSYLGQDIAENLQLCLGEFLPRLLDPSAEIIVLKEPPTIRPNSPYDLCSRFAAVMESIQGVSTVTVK
Nature of the experiment: Ubiquitin-Rhodamine 110 Assay for USP28 Activity, Example A-1(a). Type of experiment: biochemical. The conditions noted are these: Ubiquitin-Rhodamine 110 assay, Example A-1(a); read-out: USP28 A-1(a) IC50 range. The procedure, abridged: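 Full-length His-tagged human USP28 (1-1077, Expi293f-expressed), […], with 25 nM Ub-Rh110 (<<Km) in pH 8.0 Tris buffer with BME, BGG, Triton X-100. 10-point dilutions (25 μM-1.3 nM), 45 min at room temperature, citric acid stop, fluorescence 485/535 nm; IC50 by 4-parameter fit.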

`CCO[C@@H]1CN(c2ccc3c(c2)OC[C@H](NC(=O)c2sc4nc(C)ccc4c2N)C3)C[C@@H]1N` [Example 151, 3-amino-N-[(3R)-7-[(3S,4R)-3-amino-4-ethoxypyrrolidin-1-yl]-3,4-dihydro-2H-1-benzopyran-3-yl]-6-methylthieno[2,3-b]pyridine-2-carboxamide]: the IC50 was in the range of 1 to 50 nM.

For the molecule `CCO[C@H]1CN(c2ccc3c(c2)OC[C@H](NC(=O)c2sc4nc(C)ccc4c2N)C3)C[C@H]1N` [Example 152], the IC50 lay in the range of 1 to 50 nM.

As for `Cc1ccc2c(N)c(C(=O)N[C@H]3COc4cc(N5C[C@@H]6NCCO[C@@H]6C5)ccc4C3)sc2n1` [Example 153, N-[(3R)-7-[(4aS,7aR)-octahydropyrrolo[3,4-b]morpholin-6-yl]-3,4-dihydro-2H-1-benzopyran-3-yl]-3-amino-6-methylthieno[2,3-b]pyridine-2-carboxamide], the IC50 is 50 to 200 nM.

As to `Cc1ccc2c(N)c(C(=O)N[C@H]3COc4cc(N5C[C@@H]6OCCN[C@@H]6C5)ccc4C3)sc2n1` [Example 154, N-[(3R)-7-[(4aR,7aS)-octahydropyrrolo[3,4-b]morpholin-6-yl]-3,4-dihydro-2H-1-benzopyran-3-yl]-3-amino-6-methylthieno[2,3-b]pyridine-2-carboxamide], the IC50 lay in the range of 50 to 200 nM.

Take `COC[C@@H]1CNCCN1c1ccc2c(c1)OC[C@H](NC(=O)c1sc3nc(C)ccc3c1N)C2` [Example 155, 3-amino-N-[(3R)-7-[(2S)-2-(methoxymethyl)piperazin-1-yl]-3,4-dihydro-2H-1-benzopyran-3-yl]-6-methylthieno[2,3-b]pyridine-2-carboxamide]: the IC50 fell in the range of 1 to 50 nM.

As for `COC[C@H]1CNCCN1c1ccc2c(c1)OC[C@H](NC(=O)c1sc3nc(C)ccc3c1N)C2` [Example 156, 3-amino-N-[(3R)-7-[(21)-2-(methoxymethyl)piperazin-1-yl]-3,4-dihydro-2H-1-benzopyran-3-yl]-6-methylthieno[2,3-b]pyridine-2-carboxamide], the IC50 is 50 to 200 nM.

For the molecule `COC[C@H]1CN(c2ccc3c(c2)OC[C@H](NC(=O)c2sc4nc(C)ccc4c2N)C3)CCN1` [Example 157, 3-amino-N-[(3R)-7-[(3R)-3-(methoxymethyl)piperazin-1-yl]-3,4-dihydro-2H-1-benzopyran-3-yl]-6-methylthieno[2,3-b]pyridine-2-carboxamide], the IC50 lay in the range of 1 to 50 nM.

In the case of `COC[C@@H]1CN(c2ccc3c(c2)OC[C@H](NC(=O)c2sc4nc(C)ccc4c2N)C3)CCN1` [Example 158, 3-amino-N-[(3R)-7-[(3S)-3-(methoxymethyl)piperazin-1-yl]-3,4-dihydro-2H-1-benzopyran-3-yl]-6-methylthieno[2,3-b]pyridine-2-carboxamide], the concentration for half-maximal inhibition (IC50) lay within 50 to 200 nM.

Regarding `Cc1cc(C)c2c(N)c(C(=O)N[C@H]3COc4cc(N5CCNCC5)c(F)c(F)c4C3)sc2n1` [Example 159, 3-amino-N-[(3R)-5,6-difluoro-7-(piperazin-1-yl)-3,4-dihydro-2H-1-benzopyran-3-yl]-4,6-dimethylthieno[2,3-b]pyridine-2-carboxamide], the half-maximal inhibitory concentration (IC50) is > 2000 nM.

`Cc1cc(C)c2c(N)c(C(=O)N[C@@H]3COc4cc(N5CCNCC5)c(F)c(F)c4C3)sc2n1` [Example 160, 3-amino-N-[(3S)-5,6-difluoro-7-(piperazin-1-yl)-3,4-dihydro-2H-1-benzopyran-3-yl]-4,6-dimethylthieno[2,3-b]pyridine-2-carboxamide]: the IC50 was in the range of 1 to 50 nM.

As to `COC[C@@H]1CN(c2ccc3c(c2)OC[C@H](NC(=O)c2sc4nc(C)ccc4c2N)C3)C[C@@H]1N` [Example 161, 3-amino-N-[(3R)-7-[(3R,4R)-3-amino-4(methoxymethyl)pyrrolidin-1-yl]-3,4-dihydro-2H-1-benzopyran-3-yl]-6-methylthieno[2,3-b]pyridine-2-carboxamide], the IC50 fell in the range of 1 to 50 nM.

As for `COC[C@H]1CN(c2ccc3c(c2)OC[C@H](NC(=O)c2sc4nc(C)ccc4c2N)C3)C[C@H]1N` [Example 162, 3-amino-N-[(3R)-7-[(3S,4S)-3-amino-4-(methoxymethyl)pyrrolidin-1-yl]-3,4-dihydro-2H-1-benzopyran-3-yl]-6-methylthieno[2,3-b]pyridine-2-carboxamide], the IC50 was 1 to 50 nM.

With `COC[C@@H]1CN(c2ccc3c(c2)OC[C@H](NC(=O)c2sc4nc(C)ccc4c2N)C3)C[C@H]1N` [Example 163, 3-amino-N-[(3R)-7-[(3S,4R)-3-amino-4-(methoxymethyl)pyrrolidin-1-yl]-3,4-dihydro-2H-1-benzopyran-3-yl]-6-methylthieno[2,3-b]pyridine-2-carboxamide], the IC50 is 1 to 50 nM.

Consider `COC[C@H]1CN(c2ccc3c(c2)OC[C@H](NC(=O)c2sc4nc(C)ccc4c2N)C3)C[C@@H]1N` [Example 164, 3-amino-N-[(3R)-7-[(3R,4S)-3-amino-4-(methoxymethyl)pyrrolidin-1-yl]-3,4-dihydro-2H-1-benzopyran-3-yl]-6-methylthieno[2,3-b]pyridine-2-carboxamide], for which the IC50 is 1 to 50 nM.

For `Cc1ccc2c(N)c(C(=O)N[C@H]3COc4cc(N5CC[C@@H]6CNC[C@@H]65)ccc4C3)sc2n1` [Example 165, N-[(3R)-7-[(3aR,6aR)-octahydropyrrolo[2,3-c]pyrrol-1-yl]-3,4-dihydro-2H-1-benzopyran-3-yl]-3-amino-6-methylthieno[2,3-b]pyridine-2-carboxamide], the IC50 was 1 to 50 nM.

For the molecule `Cc1ccc2c(N)c(C(=O)N[C@H]3COc4cc(N5CC[C@H]6CNC[C@H]65)ccc4C3)sc2n1` [Example 166, N-[(3R)-7-[(3aS,6aS)-octahydropyrrolo[2,3-c]pyrrol-1-yl]-3,4-dihydro-2H-1-benzopyran-3-yl]-3-amino-6-methylthieno[2,3-b]pyridine-2-carboxamide], the IC50 is 1 to 50 nM.

In the case of `Cc1ccc2c(N)c(C(=O)N[C@H]3COc4cc(N5C[C@H](N)[C@H](C(F)F)C5)ccc4C3)sc2n1` [Example 167, 3-amino-N-[(3R)-7-[(3R,4R)-3-amino-4-(difluoromethyl)pyrrolidin-1-yl]-3,4-dihydro-2H-1-benzopyran-3-yl]-6-methylthieno[2,3-b]pyridine-2-carboxamide], the IC50 is 1 to 50 nM.

`Cc1ccc2c(N)c(C(=O)N[C@H]3COc4cc(N5C[C@@H](N)[C@@H](C(F)F)C5)ccc4C3)sc2n1` [Example 168, 3-amino-N-[(3R)-7-[(3S,4S)-3-amino-4-(difluoromethyl)pyrrolidin-1-yl]-3,4-dihydro-2H-1-benzopyran-3-yl]-6-methylthieno[2,3-b]pyridine-2-carboxamide]: the IC50 lay in the range of 1 to 50 nM.

As to `Cc1ccc2c(N)c(C(=O)N[C@H]3COc4cc(N5CCNCC5)cc(F)c4C3)oc2n1` [Example 169, 3-amino-N-[(3R)-5-fluoro-7-(piperazin-1-yl)-3,4-dihydro-2H-1-benzopyran-3-yl]-6-methylfuro[2,3-b]pyridine-2-carboxamide], the IC50 is 200 to 2000 nM.

For the molecule `Cc1ccc2c(N)c(C(=O)N[C@H]3COc4cc(N5CC6CCC(C5)N6)cc(F)c4C3)oc2n1` [Example 170, 3-amino-N-[(3R)-7-{3,8-diazabicyclo[3.2.1]octan-3-yl}-5-fluoro-3,4-dihydro-2H-1-benzopyran-3-yl]-6-methylfuro[2,3-b]pyridine-2-carboxamide], the IC50 was 200 to 2000 nM.

For `Cc1ccc2c(N)c(C(=O)N[C@H]3CCc4cc(N5CC6CCC(C5)N6)ccc4C3)oc2n1` [Example 171, 3-amino-N-[(2S)-6-{3,8-diazabicyclo[3.2.1]octan-3-yl]-1,2,3,4-tetrahydronaphthalen-2-yl]-6-methylfuro[2,3-b]pyridine-2-carboxamide], the IC50 was > 2000 nM.

On to `Cc1ccc2c(N)c(C(=O)N[C@H]3COc4c(F)c(N5CC6CCC(C5)N6)cc(F)c4C3)oc2n1` [Example 172, 3-amino-N-[(3R)-7-{3,8-diazabicyclo[3.2.1]octan-3-yl}-5,8-difluoro-3,4-dihydro-2H-1-benzopyran-3-yl]-6-methylfuro[2,3-b]pyridine-2-carboxamide], for which the IC50 was 200 to 2000 nM.

`Cc1ccc2c(N)c(C(=O)N[C@H]3COc4nc(N5CC6CCC(C5)N6)ccc4C3)sc2n1` [Example 173, 3-amino-N-[(3R)-7-{3,8-diazabicyclo[3.2.1]octan-3-yl]-2H,3H,4H-pyrano[2,3-b]pyridin-3-yl]-6-methylthieno[2,3-b]pyridine-2-carboxamide]: the IC50 lay within 50 to 200 nM.

One may read the IC50 as the concentration needed to halve the response being measured.
